In ChEMBL document CHEMBL3044738, “Synthesis of analogues of antihyperglycemic lead karanjin” (2011):

Experiments:
Rattus norvegicus [1] = assay: Antihyperglycemic activity in albino Rattus norvegicus Sprague-Dawley (rat) streptozotocin-induced diabetic model assessed as effect on AUC of blood glucose level at 100 mg/kg, po after 24 hr; format: functional
Rattus norvegicus [2] = assay: Antihyperglycemic activity in albino Rattus norvegicus Sprague-Dawley (rat) streptozotocin-induced diabetic model assessed as effect on AUC of blood glucose level at 100 mg/kg, po after 5 hr; format: functional

Structure (SMILES) | Activity (Rattus norvegicus [1]) [%] | Activity (Rattus norvegicus [2]) [%]
COc1c(-c2ccccc2)oc2c3c(ccc2c1=O)OCC3 [2',3'-DIHYDROKARANJIN] | 9.8 | 6.2
O=c1c(O)c(-c2ccccc2)oc2c3c(ccc12)OCC3 [2',3'-DIHYDROKARANJONOL] | 5.3 | 7
CCN(CC)CC(O)COc1c(-c2ccccc2)oc2c(ccc3occc32)c1=O (stereo not given) [3-(3-DIETHYLAMINO-2-HYDROXY-PROPYL)-KARANJONOL] | -37 | -4.8
O=C(COc1c(-c2ccccc2)oc2c(ccc3occc32)c1=O)c1ccccc1 [3-O-(2-OXO-2-PHENYL-ETHYL)-KARANJONOL] | 22.9 | 15.4
C=CCOc1c(-c2ccccc2)oc2c(ccc3occc32)c1=O [3-O-ALLYLKARANJONOL] | -16.6 | -33
CC(C)Oc1c(-c2ccccc2)oc2c(ccc3occc32)c1=O [3-O-ISOPROPYLKARANJONOL] | -15.4 | -26.9
CC(=O)OC[C@H]1O[C@@H](Oc2c(-c3ccccc3)oc3c(ccc4occc43)c2=O)[C@H](OC(C)=O)[C@@H](OC(C)=O)[C@@H]1OC(C)=O [3-OTETRAACETYLGLUCOPYRANOSYLKARANJONOL] | 0.5 | 9.7
COc1c(-c2ccccc2)oc2c(ccc3occc32)c1=O [KARANJIN] | -42.6 | -30.8
O=c1c(O)c(-c2ccccc2)oc2c1ccc1occc12 [KARANJONOL] | -39 | -37.2
CN(C)C(=N)NC(=N)N [METFORMIN] | 25 | -26.7
